# Measured values taken from patent US9212146B2, “Substituted pyridazinones for the treatment of tumors” (SHANGHAI INSTITUTE OF MATERIA MEDICA, CHINESE ACADEMY OF …, priority 2008, dated 2015).
# Where two headings read alike, the source gives them in different places.
# Key:
# [1] = system: human umbilical vein endothelial cells (HUVEC); assay: SRB proliferation assay, HUVEC; type: cell-based; settings: human umbilical vein endothelial cells (normal cells), 72 hours
# Method: (§1) Protocol: the antineoplasmic activities in vitro of the compounds were assayed by a Sulforhodamine B (SRB) protocol. Tumor cells were cultivated at 37 under 5% CO2 in a RPMI 1640 medium or a DMEM medium (Gibco) containing 10% fetal bovine serum. Tumor cells were inoculated on a 96-well plate with a concentration of 0.4-1.0×10^4 cells per well according to the cell types. 24 hours later, the target compounds diluted 10 times were added, each compound having at least 5 concentrations. After treated by the compounds for 72 hours, the culture media were discarded, and the cells were fixed by 10% cold trichloroacetic acid, and then stained by Sulforhodamine B (SRB) solution. The uncombined SRB was washed off, and the SRB combined with protein was dissolved with Tris. OD values were recorded at 515 nm on an ELISA Reader, and the cell growth inhibition rate was calculated according to following equation: Inhibition rate=(ODcontrol−ODexperimental)/ODcontrol×100%
# (§2) IC50 (50% inhibitory concentration) was calculated by using Logit method based on the inhibition rates at various concentration, and the results are shown in tables 1 and 2. […]
# [2] = system: human colon cancer cell line SW-620; assay: SRB proliferation assay, SW-620; type: cell-based; settings: SW-620, colon carcinoma, 72 hours
# Method: as §1, §2
# [3] = system: human breast cancer cell line MDA-MB-231; assay: SRB proliferation assay, MDA-MB-231; type: cell-based; settings: MDA-MB-231, breast carcinoma, 72 hours
# Method: as §1, §2
# [4] = system: human breast carcinoma cell line SK-BR-3; assay: SRB proliferation assay, SK-BR-3; type: cell-based; settings: SK-BR-3, breast carcinoma, 72 hours
# Method: as §1, §2
# [5] = system: human hepatoma cell line Bel-7402; assay: SRB proliferation assay, Bel-7402; type: cell-based; settings: Homo sapiens, Bel-7402, 72 h
# Method: as §1
# IC50 (50% inhibitory concentration) was calculated by using Logit method based on the inhibition rates at various concentration, and the results are shown in tables 1 and 2.
# The following cell lines were used: human hepatocarcinoma cell line […]; ovarian cancer cell line SK-OV-3; human breast cancer cell line MDA-MB-231; human renal carcinoma cell line A498; colon adenocarcinoma cell line HT-29; non-small cell lung cancer cell line NCI-H460; lung adenocarcinoma cell line A549; human colon cancer cell line SW-620; human hepatoma cell line Bel-7402; human breast carcinoma cell line SK-BR-3; and human umbilical vein endothelial cells (HUVEC).
# [6] = system: human renal carcinoma cell line A498; assay: SRB proliferation assay, A498; type: cell-based; settings: 72 hours
# Method: as §1, §2
# [7] = system: non-small cell lung cancer cell line NCI-H460; assay: SRB proliferation assay, NCI-H460; type: cell-based; settings: Homo sapiens, 72 hours
# Method: as §1, §2
# [8] = system: colon adenocarcinoma cell line HT-29; assay: SRB proliferation assay, HT-29; type: cell-based; settings: Homo sapiens, HT-29, colon carcinoma, 72 hours
# Method: as §1, §2
# [9] = system: ovarian cancer cell line SK-OV-3; assay: SRB proliferation assay, SK-OV-3; type: cell-based; settings: Homo sapiens, 72 hours
# Method: as §1, §2
# liver cancer of animals = assay: Curative effect against liver cancer of animals in vivo
# [10] = system: human hepatocarcinoma cell line SIMM-7721; assay: SRB proliferation assay, SIMM-7721; type: cell-based; settings: SIMM-7721, liver cancer, 72 hours
# Method: as §1, §2
structure (smiles),measurement,setting,value
O=c1ccc(-c2ccc(N3CCCC3)c(C(F)(F)F)c2)n[nH]1 [YHHU-646],IC50,[1],0.03 µM
same,IC50,[2],5.8 µM
same,IC50,[3],> 20 µM
same,IC50,[4],7.5 µM
same,IC50,"[5]; BEL-7402 cultivated in vitro, given as bounds, read-out: The Inhibition Activities for Human Liver Cancer Cells BEL-7402 (IC50)",< 0.01 µM
same,IC50,"[5]; Bel-7402, liver cancer, Table 1, read-out: IC50",0.0007 µM
same,IC50,[6],4.12 µM
same,IC50,[7],24.1 µM
same,IC50,[8],6.3 µM
same,IC50,[9],0.003 µM
same,curative effect against liver cancer of animals in vivo,liver cancer of animals,significant curative effect
same,IC50,[10],< 0.1 µM
